Type in all cases: cell-based, human
The test system of assay [1] is PC-3 prostate cancer cells. The experiment in a line: XTT cell viability assay, PC-3. The conditions noted are these: for IC50: XTT, 72 h. On the procedure: (§1) Human breast cancer (MCF-7), human lung cancer (H69AR), and human prostate cancer (PC-3) human nontumorigenic HEK-293 cells were obtained from the Health Protection Agency (UK) and Interlab Cell Line Collection (ICLC, Italy). Cells were maintained in RPMI medium (Sigma) containing 10% heat-inactivated fetal bovine serum, 1% penicillin, and 1% L-glutamine in a 37° humidified CO2 incubator.
(§2) XTT (2,3-bis(2-methoxy-4-nitro-5-sulfophenyl)-2H-tetrazolium-5-carboxanilide) cell viability test was used to determine the cytotoxic activities of SPPs, which were dissolved in dimethyl sulfoxide (DMSO). Cells were seeded in 96-well plates at a density of 10^4/well and treated with increasing concentrations of SPP (1–250 μM) for 24, 48, and 72 h. After the incubation period, 100 μL of XTT was added to all experimental wells, and 96-well plates were incubated at 37 °C for 4 h. After the color change was observed, the absorbance values of the wells were recorded at 570 nm in the microplate reader (Tecan). The IC50 values for all synthesized compounds, representing the concentration needed to inhibit 50% of cancer cell proliferation, were determined using Biosoft CalcuSyn 2.1 software.[13] The following formula was used to calculate selectivity indexes (SIs), which represent the cytotoxic selectivity of SPPs against cancer cells and normal cells (HEK-293): […]

Assay [2] has as its system nontumorigenic HEK-293 cells. The assay can be described thus: XTT cell viability assay, HEK-293. On the procedure: as §1, §2
In general terms: Formazan colour is commonly taken as a measure of viable cells.

For assay [3], the system named is H69AR lung cancer cells. The assay can be described thus: XTT cell viability assay, H69AR. The conditions noted are these: for IC50: XTT, 72 h. On the procedure:
as §1, §2

The subject of assay [4] is MCF-7 breast cancer cells. The assay can be described thus: XTT cell viability assay, MCF-7. The following applies: for IC50: XTT, 72 h. On the procedure: as §1, §2

As a reminder, the IC50 is the concentration that inhibits the measured activity by half.

On to `Clc1ccc(C2=NC3(CCCCC3)c3c(-c4cccc(Br)c4)nnc(-c4ccccc4)c32)cc1` [SPP20], for which the half-inhibitory concentration (IC50) in assay [1] (Homo sapiens) was determined as 24.2 ± 0.8 µM; in assay [2] (Homo sapiens, HEK293, 72 h), 18.3 ± 2.1 µM; in assay [3] (Homo sapiens, H69AR), 140 ± 2.4 µM; in assay [4] (Homo sapiens, MCF7), 47.6 ± 2 µM.
The matching figures for `c1ccc(C2=NC3(CCCCC3)c3c(-c4ccccc4)nnc(-c4ccccc4)c32)cc1` [SPP1]: 35.4 ± 1.6 µM, 16.5 ± 1.2 µM, 27.1 ± 0.8 µM and 21.3 ± 0.4 µM.
For `FC(F)(F)c1ccc(C2=NC3(CCCCC3)c3c(-c4ccccc4)nnc(-c4ccccc4)c32)cc1` [SPP8], in that order: 35.5 ± 0.7 µM, 38.2 ± 1.3 µM, 71.9 ± 1.8 µM and 62.2 ± 3.5 µM.
The matching figures for `Fc1ccc(-c2nnc(-c3ccccc3)c3c2C2(CCCCC2)N=C3c2ccccc2)cc1` [SPP12]: 24.2 ± 0.8 µM, 40.8 ± 2.2 µM, 19.2 ± 0.4 µM and 12.6 ± 2.6 µM.
Take `Cc1cccc(C2=NC3(CCCCC3)c3c(-c4ccccc4)nnc(-c4ccccc4)c32)c1` [SPP3]: the half-inhibitory concentration (IC50) stood at 8.3 ± 0.6 µM in assay [1] (Homo sapiens); 7.5 ± 1 µM in assay [2] (Homo sapiens, HEK293, 72 h); 9.8 ± 0.7 µM in assay [3] (Homo sapiens, H69AR); 10.4 ± 1.5 µM in assay [4] (Homo sapiens, MCF7). Moreover, the “selectivity index (SI) PC-3” value in assay [1] (versus HEK-293) is reported as 0.90. Moreover, the “selectivity index (SI) H69AR” value in assay [3] (versus HEK-293) stood at 0.76. Besides, the “selectivity index (SI) MCF-7” value in assay [4] (versus HEK-293) is reported as 0.72.
Regarding `Cc1ccc(-c2nnc(-c3ccccc3)c3c2C2(CCCCC2)N=C3c2ccsc2)cc1` [SPP14], the IC50 in assay [1] (Homo sapiens) came out at 61.4 ± 0.5 µM; in assay [2] (Homo sapiens, HEK293, 72 h) it was 12.4 ± 0.2 µM; in assay [3] (Homo sapiens, H69AR), 55.3 ± 1.6 µM; in assay [4] (Homo sapiens, MCF7), 41.5 ± 0.8 µM.
For `CC(C)(C)c1ccc(C2=NC3(CCCCC3)c3c(-c4ccc(F)cc4)nnc(-c4ccccc4)c32)cc1` [SPP18], in that order: 59.6 ± 1.4 µM, 58.5 ± 1.3 µM, 77.4 ± 1.7 µM and 65.8 ± 1.4 µM.
The matching figures for `Clc1ccc(C2=NC3(CCCCC3)c3c(-c4ccccc4)nnc(-c4ccccc4)c32)cc1` [SPP6]: 35.6 ± 0.4 µM, 77.8 ± 1.7 µM, 137 ± 1.6 µM and 48.2 ± 1.4 µM.
The matching figures for `Cc1ccc(-c2nnc(-c3ccccc3)c3c2C2(CCCCC2)N=C3c2ccc(C(F)(F)F)cc2)cc1` [SPP21]: 42.7 ± 1.6 µM, 47.1 ± 0.4 µM, 21.8 ± 0.6 µM and 54.7 ± 2.9 µM.
As for `Brc1cccc(-c2nnc(-c3ccccc3)c3c2C2(CCCCC2)N=C3c2ccccc2)c1` [SPP13], the IC50 in assay [1] (Homo sapiens) was determined as 89.7 ± 2.4 µM; in assay [2] (Homo sapiens, HEK293, 72 h) it was 52.7 ± 1.4 µM; in assay [3] (Homo sapiens, H69AR), 70.8 ± 1.3 µM; in assay [4] (Homo sapiens, MCF7) it was 66.4 ± 1.2 µM.
As to `CC(C)(C)c1ccc(C2=NC3(CCCCC3)c3c(-c4ccccc4)nnc(-c4ccccc4)c32)cc1` [SPP4], the IC50 amounted to 85.5 ± 1.2 µM in assay [1] (Homo sapiens); 55.3 ± 3.6 µM in assay [2] (Homo sapiens, HEK293, 72 h); 92 ± 3.2 µM in assay [3] (Homo sapiens, H69AR); 67.1 ± 0.2 µM in assay [4] (Homo sapiens, MCF7).
Consider `Cc1ccc(C2=NC3(CCCCC3)c3c(-c4ccccc4)nnc(-c4ccccc4)c32)cc1` [SPP2], for which the half-maximal inhibitory concentration (IC50) in assay [1] (Homo sapiens) amounted to 44.2 ± 2.8 µM; in assay [2] (Homo sapiens, HEK293, 72 h), 37.7 ± 0.2 µM; in assay [3] (Homo sapiens, H69AR), 18.7 ± 1.4 µM; in assay [4] (Homo sapiens, MCF7), 24.6 ± 0.3 µM.
The matching figures for `CC(C)(C)c1ccc(C2=NC3(CCCCC3)c3c(-c4cccc(Br)c4)nnc(-c4ccccc4)c32)cc1` [SPP19]: 61 ± 2.2 µM, 33.4 ± 1.6 µM, 34.9 ± 2.1 µM and 38.4 ± 0.7 µM.
For `COc1ccccc1C1=NC2(CCCCC2)c2c(-c3ccccc3)nnc(-c3ccccc3)c21` [SPP5], in that order: 70.6 ± 2.4 µM, 45.4 ± 2 µM, 62.7 ± 0.7 µM and 40.9 ± 1.8 µM.
The matching figures for `C#Cc1cccc(Nc2ncnc3cc(OCCOC)c(OCCOC)cc23)c1` [erlotinib, reference compound]: 18.9 ± 3.2 µM, 14.7 ± 2.8 µM, 21.5 ± 1.8 µM and 19.4 ± 2 µM.
`N.N.[Cl][Pt][Cl]` [cisplatin, reference compound]: the IC50 is 14.9 ± 4.1 µM in assay [1], 16.4 ± 0.4 µM in assay [2] (72 h), 18.2 ± 0.8 µM in assay [3] and 16.8 ± 2.4 µM in assay [4].
With `Clc1ccc(C2=NC3(CCCCC3)c3c(-c4ccccc4)nnc(-c4ccccc4)c32)cc1Cl` [SPP7], the IC50 in assay [1] (Homo sapiens) amounted to 21.1 ± 2.1 µM; in assay [2] (Homo sapiens, HEK293, 72 h) it was 55.8 ± 0.6 µM; in assay [3] (Homo sapiens, H69AR) it was 72.2 ± 3.4 µM; in assay [4] (Homo sapiens, MCF7) it was 69.2 ± 1.2 µM.
The matching figures for `Cc1ccc(-c2nnc(-c3ccccc3)c3c2C2(CCCCC2)N=C3c2cccc(C)c2)cc1` [SPP15]: 2.8 ± 0.4 µM, 24.1 ± 1.8 µM, 35.2 ± 3.2 µM and 29.7 ± 2.2 µM.
For `Cc1ccc(-c2nnc(-c3ccccc3)c3c2C2(CCCCC2)N=C3c2ccc(C(C)(C)C)cc2)cc1` [SPP17], in that order: 88.2 ± 3.5 µM, 74.6 ± 0.7 µM, 63.3 ± 1.4 µM and 61.9 ± 2.6 µM.
In the case of `O=[N+]([O-])c1ccc(C2=NC3(CCCCC3)c3c(-c4ccccc4)nnc(-c4ccccc4)c32)cc1` [SPP9], the half-maximal inhibitory concentration (IC50) amounted to 89.2 ± 2.5 µM in assay [1] (Homo sapiens); 47.5 ± 2.6 µM in assay [2] (Homo sapiens, HEK293, 72 h); 62.1 ± 1.2 µM in assay [3] (Homo sapiens, H69AR); 57.4 ± 2.8 µM in assay [4] (Homo sapiens, MCF7).
The matching figures for `Cc1ccc(-c2nnc(-c3ccccc3)c3c2C2(CCCCC2)N=C3c2ccccc2)cc1` [SPP11]: 80.5 ± 2.3 µM, 87.7 ± 1.6 µM, 75.7 ± 3.5 µM and 95.2 ± 2.4 µM.
On to `Cc1cccc(C2=NC3(CCCCC3)c3c(-c4ccc(F)cc4)nnc(-c4ccccc4)c32)c1` [SPP16], for which the IC50 in assay [1] (Homo sapiens) is 76.3 ± 0.2 µM; in assay [2] (Homo sapiens, HEK293, 72 h), 64.4 ± 2.3 µM; in assay [3] (Homo sapiens, H69AR), 63.9 ± 2.8 µM; in assay [4] (Homo sapiens, MCF7) it was 58.3 ± 0.4 µM.

These data come from article PMC11154717, “Evaluation of Novel Spiro-pyrrolopyridazine Derivatives as Anticancer Compounds: In Vitro Selective Cytotoxicity, Induction of Apoptosis, EGFR Inhibitory Activity, and Molecular Docking Analysis” (ACS Omega, 2024).
